# *1 amine or outer side, *2 acyl side, *3 side chain or, on linkers, in order; H or OH if unused. Where a SMILES comes first, the peptide text is derived from it. [ ]: non-standard residue; d: D form. The star is where a group is joined. X9 = O=C1C[C@H](N[*:1])CN1[C@@H](Cc1c[nH]c2ccccc12)C(=O)[*:2]; X10 = O=C1C[C@H](N[*:1])CN1[C@H](Cc1ccccc1)C(=O)[*:2]; X5 = O=C1C[C@@H](N[*:1])CN1[C@H](Cc1ccccc1)C(=O)[*:2]; X7 = N[C@H]1CC(=O)N([C@H](Cc2c[nH]c3ccccc23)C(=O)*)C1; X3 = N[C@@H]1CCN([C@H](Cc2c[nH]c3ccccc23)C(=O)*)C1=O; X4 = N[C@H]1CCN([C@H](Cc2c[nH]c3ccccc23)C(=O)*)C1=O; X1 = NCCCC[C@@H](C(N)=O)N1C[C@@H](N*)CC1=O; X6 = NCCCC[C@@H](C(N)=O)N1CC[C@@H](N*)C1=O; X2 = NCCCC[C@@H](C(N)=O)N1CC[C@H](N*)C1=O; X8 = NCCCC[C@@H](C(N)=O)N1C[C@H](N*)CC1=O
# What was measured:
# [1] = biological target: T1, CD36 (Rattus norvegicus, UniProt Q07969); test: Competitive covalent CD36 binding assay using photoactivatable [125I]-Tyr-Bpa-Ala-Hexarelin; settings: for IC50: displacement of [125I]-Tyr-Bpa-Ala-Hexarelin; for drop of CD36 affinity, factor: factor of decrease, reference peptide not stated
# T1 construct: the rat cardiac membranes (200 μg) as source of CD36; from tissue; host or cells: Sprague Dawley rat heart (cardiac membranes)
# Protocol: Animal use was in accordance with the Institutional Animal Ethics Committee and the Canadian Council on Animal Care guidelines for the use of experimental animals. Sprague Dawley (275-350 g) rats were anaesthetized with sodium pentobarbital and their hearts were promptly removed in ice-cold saline and the cardiac membranes were prepared according to Harigaya and Schwartz.^lxvi
# Nonspecific binding was defined as binding not displaced by 50 μM peptide. After an incubation period of 60 min at 22° C., membranes were submitted to UV irradiation at 365 nm for 15 min at 4° C. After centrifugation at 12 000 g for 15 min, the pellets were resuspended in 100 μl of sample buffer consisting of 62 mM Tris-HCl, pH 6.8, 2% SDS, 10% glycerol, 15% 2-mercapto-ethanol, and 0.05% bromophenol blue, and boiled for 5 min prior to being subjected to electrophoresis on 7.5% SDS-PAGE. The SDS/PAGE gels were fixed, colored in Coomassie Brilliant Blue R-250, dried, exposed to a storage phosphor intensifying screen (Amersham Biosciences), and analysed by using a Typhoon PhosphorImager (Amersham Biosciences) and ImageQuant 5.0 software to establish competition curves.
# [2] = biological target: T2, GHS-R1a receptor (Homo sapiens, UniProt Q92847); test: GHS-R1a receptor competitive binding assay with 125I-Ghrelin; settings: for IC50: competition with 125I-Ghrelin, GHS-R1a transiently transfected in LLC-PK1 cells; for loss of GHS-R1a binding affinity, factor relative to GHRP-6: factor of decrease compared to GHRP-6
# T2 construct: expressed in transfected cells; host or cells: LLC-PK1 cells, transient calcium phosphate transfection, membrane preparation
# Protocol: Transfection LLC-PK1 cells were seeded at 1.5×10^6 cells/10 cm Petri-dishes and grown for 24 h in DMEM high-glucose (4.5 g/L) with 10% foetal bovine serum supplemented with penicillin (10,000 Units/ml) and streptomycin (10,000 ug/ml), and cultured at 37° C., with 5% CO2. The medium was then replaced for another 4-5 hours before CaPO4 calcium phosphate transfection. The DNA solution consists of 40 μg of DNA in a volume of 500 μl in which was added 500 μl of 2 mM Tris-HCl pH 8.0, 0.2 mM EDTA pH 8.0 containing 500 mM CaCl2, to a final volume of 1 ml. Then 1 ml of 50 mM Hepes, 280 mM NaCl, 1.5 mM Na2HPO4 pH to 7.1 (HBSS) was added by alterning 1 drop/2 air bubbles. The transfection mix reaction was incubated at RT for 30 min. After the incubation period, 1 ml of the mix was added to each plate and distributed evenly for incubation. The media was replaced with standard DMEM-high glucose media for another 24 h and cells were collected for membrane preparation.
# Membrane preparation The experiment was carried out 4° C. unless specified. Cells were washed 2 times with PBS and with the homogenization buffer (HB) consisting of 50 mM Tris, 5 mM MgCl2, 2.5 mM EDTA, 30 ug/ml bacitracin at pH 7.3 and were scraped in Eppendorf tubes. Cells were lysed with 2 cycles of freeze/thawing using liquid nitrogen and were then centrifuged at 4° C. for 20 min at 10,000 g to collect the membranes. The membranes were re-suspended in a small volume of HB and aliquoted for storage at −80° C.
# The non-specific binding was determined by excess of competitive ligand at 10^−5M. The reaction was carried out at RT for 1 h.
# T1 sequence (Q07969 whole entry): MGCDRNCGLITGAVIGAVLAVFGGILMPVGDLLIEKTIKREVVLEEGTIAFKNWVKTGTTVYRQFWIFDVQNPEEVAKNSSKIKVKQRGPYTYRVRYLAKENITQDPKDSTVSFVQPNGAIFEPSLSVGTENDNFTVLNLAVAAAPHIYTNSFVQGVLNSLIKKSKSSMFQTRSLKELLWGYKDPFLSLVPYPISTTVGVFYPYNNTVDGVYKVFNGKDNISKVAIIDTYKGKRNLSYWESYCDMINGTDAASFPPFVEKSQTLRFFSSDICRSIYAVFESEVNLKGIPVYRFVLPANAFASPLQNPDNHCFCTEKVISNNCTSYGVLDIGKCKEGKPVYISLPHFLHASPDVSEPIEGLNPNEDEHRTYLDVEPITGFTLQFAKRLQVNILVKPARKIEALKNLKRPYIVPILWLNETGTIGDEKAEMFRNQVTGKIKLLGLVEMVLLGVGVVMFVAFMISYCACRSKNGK
# T2 sequence (Q92847 whole entry): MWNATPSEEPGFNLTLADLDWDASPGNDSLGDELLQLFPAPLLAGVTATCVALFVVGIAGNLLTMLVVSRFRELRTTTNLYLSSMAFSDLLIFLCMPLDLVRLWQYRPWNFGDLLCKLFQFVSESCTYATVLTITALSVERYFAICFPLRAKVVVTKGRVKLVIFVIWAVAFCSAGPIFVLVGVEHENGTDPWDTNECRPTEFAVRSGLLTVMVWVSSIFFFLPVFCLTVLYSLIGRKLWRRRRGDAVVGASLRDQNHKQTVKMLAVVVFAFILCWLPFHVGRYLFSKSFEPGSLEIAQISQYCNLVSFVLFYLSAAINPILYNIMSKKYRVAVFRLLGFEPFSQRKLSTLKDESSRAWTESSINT
IC50 ([1]; rat cardiac membranes),IC50 [2],"loss of GHS-R1a binding affinity, factor relative to GHRP-6 [2]","drop of CD36 affinity, factor [1]",affinity for the CD36 receptor (in words) ([1]; rat cardiac membranes),"reduction of CD36 binding affinity, factor compared with hexarelin [1]",Compound
26.5 µM,24.5 µM,–,15,–,–,"C[C@H](NC(=O)[C@@H](Cc1c[nH]c2ccccc12)NC(=O)[C@@H](N)Cc1c[nH]cn1)C(=O)N[C@@H](Cc1c[nH]c2ccccc12)C(=O)N[C@H]1CC(=O)N([C@@H](CCCCN)C(N)=O)C1 [Compound 53, His-D-Trp-Ala-Trp-(S)-Bgl-Lys-NH2] (H-H[dW]AW-X1)"
8.72 µM,3.46 µM,–,–,–,–,"C[C@H](NC(=O)[C@@H](Cc1c[nH]c2ccccc12)N1CC[C@@H](N)C1=O)C(=O)N[C@@H](Cc1c[nH]c2ccccc12)C(=O)N[C@H](Cc1ccccc1)C(=O)N[C@@H](CCCCN)C(N)=O [Compound 60, (R)-Agl-D-Trp-Ala-Trp-D-Phe-Lys-NH2] (X3-AW[dF]K-NH2)"
> 10 µM,> 10 µM,–,–,–,–,"C[C@@H](C(=O)N[C@@H](Cc1c[nH]c2ccccc12)C(=O)N[C@H](Cc1ccccc1)C(=O)N[C@@H](CCCCN)C(N)=O)N1CC[C@@H](NC(=O)[C@@H](N)Cc2c[nH]cn2)C1=O [Compound 61, His-(R)-Agl-Ala-Trp-D-Phe-Lys-NH2]"
17.3 µM,2.82 µM,–,–,–,–,"NCCCC[C@H](NC(=O)[C@H](Cc1ccccc1)NC(=O)[C@H](Cc1c[nH]c2ccccc12)N1CC[C@@H](NC(=O)[C@@H](Cc2c[nH]c3ccccc23)NC(=O)[C@@H](N)Cc2c[nH]cn2)C1=O)C(N)=O [Compound 62, His-D-Trp-(R)-Agl-Trp-D-Phe-Lys-NH2]"
> 10 µM,> 10 µM,–,–,–,–,"C[C@H](NC(=O)[C@@H](Cc1c[nH]c2ccccc12)NC(=O)[C@@H](N)Cc1c[nH]cn1)C(=O)N[C@@H]1CCN([C@H](Cc2ccccc2)C(=O)N[C@@H](CCCCN)C(N)=O)C1=O [Compound 63, His-D-Trp-Ala-(R)-Agl-D-Phe-Lys-NH2]"
38.2 µM,> 10 µM,–,–,–,10,"C[C@H](NC(=O)[C@@H](Cc1c[nH]c2ccccc12)NC(=O)[C@@H](N)Cc1c[nH]cn1)C(=O)N[C@@H](Cc1c[nH]c2ccccc12)C(=O)N[C@@H]1CCN([C@@H](CCCCN)C(N)=O)C1=O [Compound 64, His-D-Trp-Ala-Trp-(R)-Agl-Lys-NH2] (H-H[dW]AW-X6)"
53.5 µM,> 10 µM,–,–,–,10,"C[C@H](NC(=O)[C@@H](Cc1c[nH]c2ccccc12)NC(=O)[C@@H](N)Cc1c[nH]cn1)C(=O)N[C@@H]1CC(=O)N([C@H](Cc2ccccc2)C(=O)N[C@@H](CCCCN)C(N)=O)C1 [Compound 69, His-D-Trp-Ala-(R)-Bgl-D-Phe-Lys-NH2] (H-H[dW]A[X5]K-NH2)"
> 10 µM,> 10 µM,–,–,–,–,"C[C@H](NC(=O)[C@@H](Cc1c[nH]c2ccccc12)NC(=O)[C@@H](N)Cc1c[nH]cn1)C(=O)N[C@@H](Cc1c[nH]c2ccccc12)C(=O)N[C@@H]1CC(=O)N([C@@H](CCCCN)C(N)=O)C1 [Compound 70, His-D-Trp-Ala-Trp-(R)-Bgl-Lys-NH2] (H-H[dW]AW-X8)"

# Further lines, the compound ahead of its results:
Compound,IC50 ([1]; rat cardiac membranes),IC50 [2],"loss of GHS-R1a binding affinity, factor relative to GHRP-6 [2]","drop of CD36 affinity, factor [1]",affinity for the CD36 receptor (in words) ([1]; rat cardiac membranes),"reduction of CD36 binding affinity, factor compared with hexarelin [1]"
"C[C@H](NC(=O)[C@@H](Cc1c[nH]c2ccccc12)N1CC[C@H](N)C1=O)C(=O)N[C@@H](Cc1c[nH]c2ccccc12)C(=O)N[C@H](Cc1ccccc1)C(=O)N[C@@H](CCCCN)C(N)=O [Compound 44, (S)-Agl-D-Trp-Ala-Trp-D-Phe-Lys-NH2] (X4-AW[dF]K-NH2)",14.5 µM,0.0409 µM,10,–,–,–
"C[C@@H](C(=O)N[C@@H](Cc1c[nH]c2ccccc12)C(=O)N[C@H](Cc1ccccc1)C(=O)N[C@@H](CCCCN)C(N)=O)N1CC[C@H](NC(=O)[C@@H](N)Cc2c[nH]cn2)C1=O [Compound 45, His-(S)-Agl-Ala-Trp-D-Phe-Lys-NH2]",13.4 µM,28.6 µM,–,15,–,–
"NCCCC[C@H](NC(=O)[C@H](Cc1ccccc1)NC(=O)[C@H](Cc1c[nH]c2ccccc12)N1CC[C@H](NC(=O)[C@@H](Cc2c[nH]c3ccccc23)NC(=O)[C@@H](N)Cc2c[nH]cn2)C1=O)C(N)=O [Compound 46, His-D-Trp-(S)-Agl-Trp-D-Phe-Lys-NH2]",7.45 µM,2.39 µM,10^3,–,retained similar affinity,–
"C[C@H](NC(=O)[C@@H](Cc1c[nH]c2ccccc12)NC(=O)[C@@H](N)Cc1c[nH]cn1)C(=O)N[C@H]1CCN([C@H](Cc2ccccc2)C(=O)N[C@@H](CCCCN)C(N)=O)C1=O [Compound 47, His-D-Trp-Ala-(S)-Agl-D-Phe-Lys-NH2]",> 10 µM,> 10 µM,–,–,–,–
"C[C@H](NC(=O)[C@@H](Cc1c[nH]c2ccccc12)NC(=O)[C@@H](N)Cc1c[nH]cn1)C(=O)N[C@@H](Cc1c[nH]c2ccccc12)C(=O)N[C@H]1CCN([C@@H](CCCCN)C(N)=O)C1=O [Compound 48, His-D-Trp-Ala-Trp-(S)-Agl-Lys-NH2] (H-H[dW]AW-X2)",21.4 µM,3.1 µM,–,15,–,–
"C[C@H](NC(=O)[C@@H](Cc1c[nH]c2ccccc12)N1C[C@@H](N)CC1=O)C(=O)N[C@@H](Cc1c[nH]c2ccccc12)C(=O)N[C@H](Cc1ccccc1)C(=O)N[C@@H](CCCCN)C(N)=O [Compound 49, (S)-Bgl-D-Trp-Ala-Trp-D-Phe-Lys-NH2] (X7-AW[dF]K-NH2)",> 10 µM,0.371 µM,–,–,–,–
"C[C@@H](C(=O)NCN[C@@H](Cc1c[nH]c2ccccc12)C(=O)N[C@H](Cc1ccccc1)C(=O)N[C@@H](CCCCN)C(N)=O)N1C[C@@H](NC(=O)[C@@H](N)Cc2c[nH]cn2)CC1=O [Compound 50, His-(S)-Bgl-Ala-Trp-D-Phe-Lys-NH2]",> 10 µM,> 10 µM,–,–,–,–
"NCCCC[C@H](NC(=O)[C@@H](Cc1ccccc1)NC(=O)[C@H](Cc1c[nH]c2ccccc12)N1C[C@@H](NC(=O)[C@@H](Cc2c[nH]c3ccccc23)NC(=O)[C@@H](N)Cc2cnc[nH]2)CC1=O)C(N)=O [Compound 51, His-D-Trp-(S)-Bgl-Trp-D-Phe-Lys-NH2] (H-H[dW][X9][dF]K-NH2)",> 10 µM,0.654 µM,–,–,–,–
"C[C@H](NC(=O)[C@@H](Cc1c[nH]c2ccccc12)NC(=O)[C@@H](N)Cc1c[nH]cn1)C(=O)N[C@H]1CC(=O)N([C@H](Cc2ccccc2)C(=O)N[C@@H](CCCCN)C(N)=O)C1 [Compound 52, His-D-Trp-Ala-(S)-Bgl-D-Phe-Lys-NH2] (H-H[dW]A[X10]K-NH2)",> 10 µM,> 10 µM,–,–,–,–

# From patent US20120101257A1, “PROCESSES FOR PREPARING AMINO-SUBSTITUTED GAMMA-LACTAMS” (UNIVERSITE DE MONTREAL, priority 2009, published 2012)
